Tests used:
[1] = system: solid phase T4 specific antibody; assay: Binding of labelled T4 derivatives to solid phase T4 antibody with and without thiomersal (Example 7); parameters: species or system sheep; settings: 125I-labelled T4 derivative
Procedure: (§1) The dominant binding protein for T4 in serum is TBG, and the binding site for T4 on this protein may be blocked by adding an appropriate concentration of thiomersalate to the buffer.
(§2) The labelled T4 derivative was dissolved in 0.01 molar phosphate, pH 7.4 containing 0.9% sodium chloride and 0.1% gelatin to give a radioactive concentration of approximately 0.05 microcuries per milliliter. In the part of the experiment where the blocking agent was used, this buffer contained 1.8% thiomersal.
(§3) A solid phase T4 specific antibody was used that consisted of a pre-precipitated double antibody complex made by reacting sheep anti-T4 serum and donkey anti-rabbit gamma globulin serum in the abovementioned phosphate buffer. A concentration of this solid phase T4 antibody suspension was chosen that bound approximately 50% of ^125 I-T4 tracer in the presence of blocking agent under the experimental conditions used.
(§4) The binding of the labelled T4 derivatives was tested as follows:
(§5) 50 μl human serum (depleted of T4 by resin extraction)
(§6) 500 μl labelled T4 derivative (with or without blocking agent)
(§7) 1.0 ml solid phase T4 antibody suspension
(§8) Tubes were incubated for 2 hours at 37° C. and then centrifuged to settle the solid phase antibody. The supernatant solution was decanted and the radioactivity in the solid phase measured.

TBG = target: T1, TBG (Homo sapiens, UniProt P05543); assay: Binding of T4 derivatives to TBG, from antibody binding in presence and absence of blocking agent (Example 7)
T1 sequence (P05543 21-415): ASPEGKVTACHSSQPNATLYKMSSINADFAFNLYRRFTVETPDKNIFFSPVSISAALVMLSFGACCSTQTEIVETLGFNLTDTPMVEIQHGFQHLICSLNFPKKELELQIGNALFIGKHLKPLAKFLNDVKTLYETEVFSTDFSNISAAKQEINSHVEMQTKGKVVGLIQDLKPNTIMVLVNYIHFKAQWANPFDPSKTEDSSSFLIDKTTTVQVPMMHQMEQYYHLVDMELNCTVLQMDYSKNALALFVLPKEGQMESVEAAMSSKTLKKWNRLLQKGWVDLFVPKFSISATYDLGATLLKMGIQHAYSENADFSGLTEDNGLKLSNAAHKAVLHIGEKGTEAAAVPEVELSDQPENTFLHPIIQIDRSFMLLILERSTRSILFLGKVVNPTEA
Procedure: as §1, §2, §3, §4, §5, §6, §7, §8
The right-hand column of the above table sets out the ratio of the figures in the two other columns. As a rule of thumb, it may be said that this ratio should be at least 0.6, preferably at least 0.9 for the compound tested to be worth considering for use in the free T4 assay. It should be noted, however, that these figures are valid only for the free T4 assay and not necessarily for other free ligand assays.

transcortin = target: T2, transcortin (Homo sapiens, UniProt P08185); assay: Binding of cortisol tracers to serum proteins / transcortin with and without ANS (Example 4); settings: for % Tracer Bound to Serum Proteins (Corrected for Non-Specific Binding): charcoal extracted human serum
T2 construct: charcoal extracted human serum; from tissue; host or cells: human serum, charcoal extracted (unpurified)
T2 sequence (P08185 23-405): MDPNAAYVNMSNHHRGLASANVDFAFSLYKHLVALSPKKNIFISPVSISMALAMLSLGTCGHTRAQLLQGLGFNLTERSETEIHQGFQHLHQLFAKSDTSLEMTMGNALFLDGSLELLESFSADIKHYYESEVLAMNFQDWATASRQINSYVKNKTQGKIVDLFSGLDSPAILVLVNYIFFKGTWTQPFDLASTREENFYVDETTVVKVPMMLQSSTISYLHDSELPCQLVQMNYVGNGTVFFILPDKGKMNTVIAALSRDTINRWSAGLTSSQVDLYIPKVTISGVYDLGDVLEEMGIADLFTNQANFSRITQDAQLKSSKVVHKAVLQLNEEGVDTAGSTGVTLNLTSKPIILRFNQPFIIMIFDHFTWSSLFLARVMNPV
Procedure: The protocol was as follows:
B. 200 μl buffer (containing either 0 or 600 μg of 8-anilinonaphthalene sulphonic acid (ANS) as a cortisol binding site blocking agent).
A mixture of A and B was incubated at 37° C. for one hour. […] The reaction tubes were mixed for one hour at room temperature. A 0.5 ml aliquot of the supernatant was then removed for counting.

Structure (SMILES)	% of T4 derivative bound to antibody ([1]; Thiomersal absent) [%]	% of T4 derivative bound to antibody ([1]; Thiomersal present) [%]	Ratio (% bound to antibody, thiomersal absent / present) (TBG)	binding to TBG (in words) (TBG)	suitability of TBG binding reduction for free-T4 assay (in words) (TBG)	binding to transcortin (in words) (transcortin)	% Tracer Bound to Serum Proteins (Corrected for Non-Specific Binding) (transcortin; ANS 0 μg/tube) [%]	% Tracer Bound to Serum Proteins (Corrected for Non-Specific Binding) (transcortin; ANS 600 μg/tube) [%]	displacement from transcortin by ANS blocking agent (in words) (transcortin; high concentrations of ANS)
COC(=O)[C@@H](Cc1cc(I)c(Oc2cc(I)c(O)c(I)c2)c(I)c1)NC(C)=O [D-T4/A, N-Acetyl D-T4-methylester]	38	38	1.00	appears to decrease this binding to TBG even further	sufficiently reduced binding to TBG for use in the free-T4 assay				
C[C@]12CCC(=O)C=C1CC[C@@H]1[C@@H]2[C@@H](O)C[C@@]2(C)[C@H]1CC[C@]2(O)C(=O)CO [Cortisol (H^3), Cortisol, reference compound]						binds strongly to transcortin	28	3.5	displaced at high concentrations of the ANS blocking agent
CC(=O)N[C@@H](Cc1cc(I)c(Oc2cc(I)c(O)c(I)c2)c(I)c1)C(=O)O [L-T4/F, N-Acetyl-L-T4]	22	52	0.42	bound to TBG to about the same extent as D-T4	not reduced enough for consideration as a T4 derivative for a free-T4 assay				
CCNC(=O)[C@H](Cc1cc(I)c(Oc2cc(I)c(O)c(I)c2)c(I)c1)NC(C)=O [L-T4/L, N-Acetyl-L-T4-monoethylamide]	21	60	0.35	bound to TBG to about the same extent as D-T4	not reduced enough for consideration as a T4 derivative for a free-T4 assay				
CC(=O)N[C@@H](Cc1cc(I)c(Oc2cc(I)c(O)c(I)c2)c(I)c1)C(=O)N(C)C [L-T4/M, N-Acetyl-L-T4-dimethylamide]	50	50	1.00	appears to have minimal binding to TBG	sufficiently reduced binding to TBG for use in the free-T4 assay				
COC(=O)[C@H](Cc1cc(I)c(Oc2cc(I)c(O)c(I)c2)c(I)c1)NC(C)=O [L-T4/A, N-Acetyl-L-T4-methylester]	36	40	0.90	appears to bind much less strongly to TBG than does L-T4	sufficiently reduced binding to TBG for use in the free-T4 assay				

Reference: patent US4366143A, “Assay for the free portion of substances in biological fluids” (Amersham International Public Limited Company, priority 1979, dated 1982)
